Experimental data from patent US20200253877A1, “GEMCABENE, PHARMACEUTICALLY ACCEPTABLE SALTS THEREOF, COMPOSITIONS THEREOF AND METHODS OF USE THEREFOR” (NEUROBO PHARMACEUTICALS, INC., priority 2018, published 2020).

Tests used:
[1] = Aqueous solubility of gemcabene calcium salt forms over 24 hours (HPLC concentration, XRPD form); assay type: physicochemical; conditions: approximately 25° C.
Description: To each vial, approximately 3 mL to 4 mL water were added and the samples were mixed at ambient temperature (approximately 25° C.) for approximately 24 hours. […] From each vial, samples of the slurries were taken after 1, 4, and 24 hours, which were separated by centrifugation. The solids were separated by centrifugation and analyzed by XRPD for solid form and by HPLC for concentration.

[2] = Effect of steady-state gemcabene 600 mg on single-dose pharmacokinetics of ON 1/35 (ethinyl estradiol/norethindrone) in healthy female subjects; assay type: in vivo, human; conditions: 600 mg daily at steady state; single dose ON 1/35
Description: An open-label, two-sequence, cross-over study to assess the steady-state effects of gemcabene calcium on the single-dose pharmacokinetics (PK) of oral contraceptive tablets in healthy female subjects was conducted with 300 mg tablets containing gemcabene calcium salt hydrate Crystal Form 1 having PSD90 of 52 μm (film-coated Tablet F).
The population for this study was generally healthy, adult female subjects of childbearing potential (≥18 to ≤35 years of age). This population supports the overall objective of the study to evaluate the effect of 600 mg of gemcabene calcium salt hydrate Crystal Form 1 having PSD90 of 52 μm at steady-state on the PK of a single dose of ON 1/35 (Ortho Novum 1/35; combined ethinyl estradiol/norethindrone oral contraceptive). The primary objective of this study was to assess the effect of daily 600 mg of gemcabene calcium salt hydrate Crystal Form 1 having PSD90 of 52 μm at steady-state on the pharmacokinetics (PK) of ON 1/35. The secondary objectives of this study were to assess the safety and tolerability of daily gemcabene 600 mg in combination with a single-dose ON 1/35 and to assess the steady-state PK of 600 mg of gemcabene calcium salt hydrate Crystal Form 1 having PSD90 of 52 μm (film-coated Tablet F×2). […]

[3] = Tablet dissolution in pH 5.0 potassium acetate, USP apparatus 2, UV/Vis fiber optic quantitation (216 nm to 230 nm); assay type: physicochemical; conditions: film-coated Tablets D, F2, C3, ES (average n=6)
Description: Tablet's gemcabene dissolution profiles were evaluated using an ultra-violet/visible (uv/vis) light absorption methodology in which dissolved gemcabene in the dissolution media was directly measured inside the dissolution vessel. This method of analysis allowed for real-time measurement of gemcabene dissolution at multiple, closely spaced sampling intervals. This method provides a higher resolution dissolution profile than could be obtained with the HPLC analysis methodology used in Example 13 and allowed for detection of differences in dissolution characteristics between the various gemcabene calcium polymorphs. […] FIG. 56 compares the gemcabene dissolution profiles generated using these two methodologies and Table 28 reports the gemcabene dissolution profiles and % RSD for n=6 dissolution testing conducted with both methods of analysis.

CC(C)(CCCCOCCCCC(C)(C)C(=O)O)C(=O)O.[Ca] [6-(5-Carboxy-5-methyl-hexyloxy)-2,2-dimethylhexanoic acid calcium]
change in polymorphic form during the test period (XRPD) ([1]; slurry in water, 24 hours): no change in polymorphic form
change in concentration (HPLC) during the experiment ([1]; slurry in water, sampled 1, 4, 24 hours): small increase
solubility at 1 h ([1]; thermodynamic from solid, water, 1 h, read-out: Conc. (aqueous solubility)): 96.2 mg/mL
solubility at 4 h ([1]; thermodynamic from solid, water, 4 h, read-out: Conc. (aqueous solubility)): 98.3 mg/mL
solubility at 24 h ([1]; thermodynamic from solid, water, 24 h, read-out: Conc. (aqueous solubility)): 99.5 mg/mL
Form (XRPD) of solid in water slurry ([1]; water, 1 h): Form 1
Form (XRPD) of solid in water slurry ([1]; water, 4 h): Form 1
Form (XRPD) of solid in water slurry ([1]; water, 24 h): Form 1
drug-drug interaction with ethinyl estradiol and norethindrone [2]: mild drug-drug interaction
gemcabene dissolution rate of film-coated tablets, compared among polymorphs [3]: intermediate profile
